The values below come from patent US9540289B2, “Chelated compositions and methods of making and using the same” (Scott G. Williams, LLC, priority 2010, dated 2017).

A short description of this series: Titration of 1% w/w solution with 0.5 M NaOH until precipitate forms. The class given is physicochemical. The method, then:
The finished material was tested by titration with 0.5 M NaOH. A 1% w/w solution was made of the material by placing 1.0042 g in a 100 mL of deionized water. 0.5 M NaOH was then titrated into this solution. The material absorbed 23.8 mL of the 0.5 M NaOH while the solution pH rose from about 2 to about 10.2, whereupon a precipitate formed.

With “zinc EDTA chelate [pure zinc EDTA chelate]”, for the setting “1% w/w solution in 100 mL deionized water, titrated with 0.5 M NaOH”, the “0.5 M NaOH absorbed until a precipitate formed” value came to 5.8 mL. For the same substance, the “solution pH at which a precipitate formed” value (1% w/w solution titrated with 0.5 M NaOH) is “above 10.2”.
